# In ChEMBL document CHEMBL1132978, “Artificial neural network applied to prediction of fluorquinolone antibacterial activity by topological methods” (2000):
# System: Escherichia coli
# Assay: Minimum inhibitory concentration against Escherichia coli
# Type: functional
row,MIC [µg/mL],SMILES
1,0.013,CC(N)C1CCN(c2c(F)cc3c(=O)c(C(=O)O)cn(C4CC4)c3c2F)C1 (stereo unspecified)
2,3.1,CC(C)CN1CCN(c2cc3c(cc2F)c(=O)c(C(=O)O)cn3-c2ccc(F)cc2F)CC1
3,0.2,CN1CCN(c2cc3c(cc2F)c(=O)c(C(=O)O)cn3-c2ccc(F)cc2F)CC1
4,0.1,CCNCC1CCN(c2cc3c(c(N)c2F)c(=O)c(C(=O)O)cn3C2CC2)C1 (stereo unspecified)
5,0.1,COc1c(N2CCCC(N)C2)c(F)cc2c(=O)c(C(=O)O)cn(C3CC3)c12 (stereo unspecified)
6,0.1,CC1CN(c2cc3c(cc2F)c(=O)c(C(=O)O)cn3C(C)(C)C)CCN1 (stereo unspecified)
7,0.05,CCNCC1CCN(c2c(F)c(N)c3c(=O)c(C(=O)O)cn(C4CC4)c3c2F)C1 (stereo unspecified)
8,0.05,NCC1CCN(c2cc3c(cc2F)c(=O)c(C(=O)O)cn3C2CC2)C1 (stereo unspecified)
9,0.1,CCNC(C)C1CCN(c2cc3c(c(N)c2F)c(=O)c(C(=O)O)cn3C2CC2)C1 (stereo unspecified)
10,0.2,CCN1CCN(c2cc3c(cc2F)c(=O)c(C(=O)O)cn3C(C)(C)C)CC1
11,1.6,CC1CN(c2cc3c(cc2F)c(=O)c(C(=O)O)cn3C(C)C)CC(C)N1 (stereo unspecified)
12,0.8,CCCCN1CCN(c2cc3c(cc2F)c(=O)c(C(=O)O)cn3-c2ccc(F)cc2F)CC1
13,0.4,CCn1cc(C(=O)O)c(=O)c2cc(F)c(N3CC(C)NC(C)C3)cc21 (stereo unspecified)
14,0.2,CC1CN(c2cc3c(cc2F)c(=O)c(C(=O)O)cn3C(C)(C)C)CC(C)N1 (stereo unspecified)
15,0.4,CCC1CN(c2cc3c(cc2F)c(=O)c(C(=O)O)cn3-c2ccc(F)cc2F)CCN1 (stereo unspecified)
16,0.1,CCN1CCN(c2cc3c(cc2F)c(=O)c(C(=O)O)cn3CC)CC1
17,0.05,NCC1CCCN(c2c(F)c(N)c3c(=O)c(C(=O)O)cn(C4CC4)c3c2F)C1 (stereo unspecified)

row,MIC [µg/mL],SMILES
1,3.1,CNCC1CCN(c2cc3c(cc2F)c(=O)c(C(=O)O)cn3C(C)C)C1 (stereo unspecified)
2,0.2,COc1c(N2CC(C)NC(C)C2)c(F)c(N)c2c(=O)c(C(=O)O)cn(C3CC3)c12 (stereo unspecified)
3,0.2,CCn1cc(C(=O)O)c(=O)c2cc(F)c(N3CCNC(C)C3)cc21 (stereo unspecified)
4,0.1,CNCC1CCN(c2nc3c(cc2F)c(=O)c(C(=O)O)cn3C2CC2)C1 (stereo unspecified)
5,0.4,CCNCC1CCN(c2c(F)cc3c(=O)c(C(=O)O)cn(C4CC4)c3c2C(F)(F)F)C1 (stereo unspecified)
6,0.2,CC1(CN)CCN(c2c(F)c(N)c3c(=O)c(C(=O)O)cn(C4CC4)c3c2F)C1 (stereo unspecified)
7,0.2,CC(C)CN1CCN(c2cc3c(cc2F)c(=O)c(C(=O)O)cn3C2CC2)CC1
8,0.2,CC(C)(C)n1cc(C(=O)O)c(=O)c2cc(F)c(N3CCC(N)C3)cc21 (stereo unspecified)
9,0.2,COc1c(N2CCCC(CN)C2)c(F)cc2c(=O)c(C(=O)O)cn(C3CC3)c12 (stereo unspecified)
10,0.025,COc1c(N2CCC(N)C2)c(F)c(N)c2c(=O)c(C(=O)O)cn(C3CC3)c12 (stereo unspecified)
11,0.013,NC1CCN(c2c(F)cc3c(=O)c(C(=O)O)cn(C4CC4)c3c2Cl)C1 (stereo unspecified) [CLINAFLOXACIN]
12,0.05,CCN1CCN(c2cc3c(cc2F)c(=O)c(C(=O)O)cn3C2CC2)CC1 [ENROFLOXACIN]
13,0.05,COc1c(N2CCNC(C)C2)c(F)cc2c(=O)c(C(=O)O)cn(C3CC3)c12 (stereo unspecified) [GATIFLOXACIN]
14,0.1,CCNCC1CCN(c2c(F)cc3c(=O)c(C(=O)O)cn(CC)c3c2F)C1 (stereo unspecified) [MERAFLOXACIN]
15,0.05,CCNCC1CCN(c2c(F)cc3c(=O)c(C(=O)O)cn(C4CC4)c3c2F)C1 (stereo unspecified) [PD-117558]
16,0.1,CC1CN(c2cc3c(cc2F)c(=O)c(C(=O)O)cn3-c2ccc(F)cc2F)CCN1 (stereo unspecified) [TEMAFLOXACIN]
17,0.025,NC1CCN(c2nc3c(cc2F)c(=O)c(C(=O)O)cn3-c2ccc(F)cc2F)C1 (stereo unspecified) [TOSUFLOXACIN]

row,SMILES,MIC [µg/mL]
1,O=C(O)c1cn(C2CCC2)c2cc(N3CCNCC3)c(F)cc2c1=O,0.4
2,CCn1cc(C(=O)O)c(=O)c2cc(F)c(N3CCNCC3)cc21 [NORFLOXACIN],0.1
